Laboratory results published in patent US10391070B2, “Compositions and methods for treating neurological diseases or injury” (MUSC FOUNDATION FOR RESEARCH DEVELOPMENT, priority 2012, dated 2019).

Test system: HT-22 neuronal cells
Assay: Respirometry (OCR, ECAR; Seahorse XF-96)
Assay type: cell-based, mouse
Design: ECAR (glycolysis), difference from control: unit not given here
Conditions: HT-22 cells, mean±SEM
Procedure: Oxygen consumption rates (OCR) and extracellular acidification rates (ECAR) of HT-22 neuronal cells were performed on the XF-96 Extracellular Flux Analyzer (Seahorse Bioscience) using standard methods (Beeson et al., 2010). In brief, cells were cultured in 96 well Seahorse plates in DMEM high glucose media (Invitrogen) supplemented with 10% FBS, 10 mM HEPES, and 1% antibiotic-antimycotic (Invitrogen). The media was replaced with DMEM media supplemented with 25 mM glucose, 10 mM sodium pyruvate, 31 mM NaCl, and 2 mM glutamine at pH 7.4. Each of the four drug ports on the Seahorse sensor cartridge were filled with test compound (media only, 5 μM NQN-1, 10 μM VK3 or 12.5 μM MB), 10 μM oligomycin, 1 μM FCCP, and 5 μM rotenone, which were injected into each well at 20, 80, 110, and 135 min, respectively. The pmol/min OCR rate for each well (9-52 wells/group) was measured. Wells were excluded from the analysis if their OCR values surpassed the Tukey Outlier Rule. In order to standardize the OCR rates across wells, the average OCR value at 17 min (last time point prior to injection of the test compounds) for each experimental group was calculated, and set to 100. All OCR values are given as a percentage of this pre-treatment value. […]

CN(C)c1ccc2nc3ccc(=[N+](C)C)cc-3sc2c1.[Cl-] [MB, reference compound]
basal cellular respiration, difference in OCR from control (1 h treatment, OCR as percentage of pre-treatment value): 53.21±5.92 | basal mitochondrial respiration, difference from control (basal minus non-mitochondrial (rotenone)): 19.22±6.54 | ATP-linked respiration, difference from control (basal minus oligomycin): 19.76±6.59 | ECAR (glycolysis), difference from control: −0.86±1.26
